This note sets out measurements from US12227496B2 (BRISTOL-MYERS SQUIBB COMPANY, priority 2019, dated 2025).

The target in the test is T1, human FXR (Homo sapiens, UniProt Q96RI1).
T1 construct: expressed in transfected cells; host or cells: HEK293 cells stably carrying a 5xGal4-response-element firefly luciferase reporter, transiently transfected with pcDNA3.1-Gal4-FXR
T1 sequence (Q96RI1 262-486 limits assumed): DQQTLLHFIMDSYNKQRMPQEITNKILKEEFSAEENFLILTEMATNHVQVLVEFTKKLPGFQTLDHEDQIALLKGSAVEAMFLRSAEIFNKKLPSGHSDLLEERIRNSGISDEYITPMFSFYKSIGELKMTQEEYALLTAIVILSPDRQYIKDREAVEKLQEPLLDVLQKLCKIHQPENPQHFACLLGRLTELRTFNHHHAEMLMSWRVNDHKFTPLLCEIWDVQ
The experiment in a line: transient human FXR/Gal4-luciferase reporter assay. Type of test: cell-based. To be noted: Gal4-hFXR LBD fusion, luciferase reporter in HEK293 cells; response relative to 8 μM GW-4064. A digest of the protocol: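 HEK293 cells stably carrying a 5×Gal4-response-element firefly luciferase reporter were transiently transfected with Gal4-hFXR. They were then incubated overnight at 37 °C with compound serial dilutions in medium containing 10% charcoal/dextran-stripped FBS. Luminescence was read after Steady-Glo addition.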
On to `O=C(N1CCOCC1)N(CC12CCC(c3nc(C4CC4)no3)(CC1)CC2)c1cccc(-c2nc(C3CC3)no2)c1` [Example 56, N-((4-(3-cyclopropyl-1,2,4-oxadiazol-5-yl)bicyclo[2.2.2]octan-1-yl)methyl)-N-(3-(3-cyclopropyl-1,2,4-oxadiazol-5-yl)phenyl)morpholine-4-carboxamide], for which a half-maximal effect (EC50) was put at 739 nM.

With `O=C(N1CCCCC1)N(CC12CCC(c3nc(C4CC4)no3)(CC1)CC2)c1cccc(-c2nc(C3CC3)no2)c1` [Example 57, N-((4-(3-cyclopropyl-1,2,4-oxadiazol-5-yl)bicyclo[2.2.2]octan-1-yl)methyl)-N-(3-(3-cyclopropyl-1,2,4-oxadiazol-5-yl)phenyl) piperidine-1-carboxamide], it took 819 nM to reach a half-maximal effect (EC50).

With `O=C(N1CCC(F)(F)CC1)N(CC12CCC(c3nc(C4CC4)no3)(CC1)CC2)c1cccc(-c2nc(C3CC3)no2)c1` [Example 58, N-((4-(3-cyclopropyl-1,2,4-oxadiazol-5-yl)bicyclo[2.2.2]octan-1-yl)methyl)-N-(3-(3-cyclopropyl-1,2,4-oxadiazol-5-yl)phenyl)-4,4-difluoropiperidine-1-carboxamide], the EC50 stood at 413 nM.

Take `CN1CCN(C(=O)N(CC23CCC(c4nc(C5CC5)no4)(CC2)CC3)c2cccc(-c3nc(C4CC4)no3)c2)CC1` [Example 59, N-((4-(3-cyclopropyl-1,2,4-oxadiazol-5-yl)bicyclo[2.2.2]octan-1-yl)methyl)-N-(3-(3-cyclopropyl-1,2,4-oxadiazol-5-yl)phenyl)-4-methylpiperazine-1-carboxamide]: it took 1380 nM to reach a half-maximal effect (EC50).

`CC1CCN(C(=O)N(CC23CCC(c4nc(C5CC5)no4)(CC2)CC3)c2cccc(-c3nc(C4CC4)no3)c2)CC1` [Example 60, N-((4-(3-cyclopropyl-1,2,4-oxadiazol-5-yl)bicyclo[2.2.2]octan-1-yl)methyl)-N-(3-(3-cyclopropyl-1,2,4-oxadiazol-5-yl)phenyl)-4-methylpiperidine-1-carboxamide]: the EC50 is 1020 nM.

On to `O=C(N1CCC(O)CC1)N(CC12CCC(c3nc(C4CC4)no3)(CC1)CC2)c1cccc(-c2nc(C3CC3)no2)c1` [Example 61, N-((4-(3-cyclopropyl-1,2,4-oxadiazol-5-yl)bicyclo[2.2.2]octan-1-yl)methyl)-N-(3-(3-cyclopropyl-1,2,4-oxadiazol-5-yl)phenyl)-4-hydroxypiperidine-1-carboxamide], for which the EC50 came out at 3670 nM.

Compound `CC1CN(C(=O)N(CC23CCC(c4nc(C5CC5)no4)(CC2)CC3)c2cccc(-c3nc(C4CC4)no3)c2)CC(C)O1` (stereo not shown) [Example 63, N-((4-(3-cyclopropyl-1,2,4-oxadiazol-5-yl)bicyclo[2.2.2]octan-1-yl)methyl)-N-(3-(3-cyclopropyl-1,2,4-oxadiazol-5-yl)phenyl)-2,6-dimethylmorpholine-4-carboxamide] gave a concentration giving a half-maximal response (EC50) of 1130 nM.

Take `O=C(N1CCC(N2CCCCC2)CC1)N(CC12CCC(c3nc(C4CC4)no3)(CC1)CC2)c1cccc(-c2nc(C3CC3)no2)c1` [Example 64, N-((4-(3-cyclopropyl-1,2,4-oxadiazol-5-yl)bicyclo[2.2.2]octan-1-yl)methyl)-N-(3-(3-cyclopropyl-1,2,4-oxadiazol-5-yl)phenyl)-[1,4′-bipiperidine]-1′-carboxamide]: the half-maximal effective concentration (EC50) was determined as 4820 nM.

As for `CC(C)(C)c1noc(C23CCC(CN(C(=O)C4CCOCC4)c4cccc(-c5nc(C6CC6)no5)c4)(CC2)CC3)n1` [Example 69, N-((4-(3-(tert-butyl)-1,2,4-oxadiazol-5-yl)bicyclo[2.2.2]octan-1-yl)methyl)-N-(3-(3-cyclopropyl-1,2,4-oxadiazol-5-yl)phenyl)tetrahydro-2H-pyran-4-carboxamide], a half-maximal effect (EC50) was put at 162 nM.

Compound `COc1cccc(-c2cccc(N(CC34CCC(c5nc(C)no5)(CC3)CC4)C(=O)C3CCCCC3)c2)c1` [Example 72, N-(3′-methoxy-[1,1′-biphenyl]-3-yl)-N-((4-(3-methyl-1,2,4-oxadiazol-5-yl)bicyclo[2.2.2]octan-1-yl)methyl)cyclohexanecarboxamide] showed a concentration for a half-maximal effect (EC50) of 307 nM.

`COc1cc(-c2cccc(N(CC34CCC(c5nc(C)no5)(CC3)CC4)C(=O)C3CCCCC3)c2)ccn1` [Example 73, N-(3-(2-methoxypyridin-4-yl)phenyl)-N-((4-(3-methyl-1,2,4-oxadiazol-5-yl)bicyclo[2.2.2]octan-1-yl)methyl)cyclohexane carboxamide] displayed a 50% effective concentration (EC50) of 517 nM.

`COc1cccc(-c2cccc(N(CC34CCC(c5nc(C6CC6)no5)(CC3)CC4)C(=O)C3CCCCC3)c2)c1` [Example 74, N-((4-(3-cyclopropyl-1,2,4-oxadiazol-5-yl)bicyclo[2.2.2]octan-1-yl)methyl)-N-(3′-methoxy-[1,1′-biphenyl]-3-yl)cyclohexanecarboxamide] returned a half-maximal effective concentration (EC50) of 151 nM.

As to `COc1cc(-c2cccc(N(CC34CCC(c5nc(C6CC6)no5)(CC3)CC4)C(=O)C3CCCCC3)c2)ccn1` [Example 75, N-((4-(3-cyclopropyl-1,2,4-oxadiazol-5-yl)bicyclo[2.2.2]octan-1-yl)methyl)-N-(3-(2-methoxypyridin-4-yl)phenyl)cyclohexane carboxamide], the EC50 was determined as 129 nM.

`COc1ccc(-c2cccc(N(CC34CCC(c5nc(C)no5)(CC3)CC4)C(=O)C3CCCCC3)c2)cc1` [Example 76, N-(4′-methoxy-[1,1′-biphenyl]-3-yl)-N-((4-(3-methyl-1,2,4-oxadiazol-5-yl)bicyclo[2.2.2]octan-1-yl)methyl)cyclohexane carboxamide]: the 50% effective concentration (EC50) came to 387 nM.

For `CCOc1ccnc(-c2cccc(N(CC34CCC(c5nc(C6CC6)no5)(CC3)CC4)C(=O)C3CCCCC3)c2)c1` [Example 77, N-((4-(3-cyclopropyl-1,2,4-oxadiazol-5-yl)bicyclo[2.2.2]octan-1-yl)methyl)-N-(3-(4-ethoxypyridin-2-yl)phenyl)cyclohexane carboxamide], the concentration giving a half-maximal response (EC50) was determined as 268 nM.

On to `CCOc1cc(-c2cccc(N(CC34CCC(c5nc(C6CC6)no5)(CC3)CC4)C(=O)C3CCCCC3)c2)ccn1` [Example 78, N-((4-(3-cyclopropyl-1,2,4-oxadiazol-5-yl)bicyclo[2.2.2]octan-1-yl)methyl)-N-(3-(2-ethoxypyridin-4-yl)phenyl)cyclohexane carboxamide], for which a half-maximal effect (EC50) was put at 181 nM.

As for `CCOc1cc(-c2cccc(N(CC34CCC(c5nc(C6CC6)no5)(CC3)CC4)C(=O)C3CCC(F)(F)CC3)c2)ccn1` [Example 79, N-((4-(3-cyclopropyl-1,2,4-oxadiazol-5-yl)bicyclo[2.2.2]octan-1-yl)methyl)-N-(3-(2-ethoxypyridin-4-yl)phenyl)-4,4-difluorocyclohexane-1-carboxamide], the half-maximal effective concentration (EC50) stood at 408 nM.

Consider `COc1cc(-c2cccc(N(CC34CCC(c5nnc(C)s5)(CC3)CC4)C(=O)C3CCCCC3)c2)ccn1` [Example 80, N-(3-(2-methoxypyridin-4-yl)phenyl)-N-((4-(5-methyl-1,3,4-thiadiazol-2-yl)bicyclo[2.2.2]octan-1-yl)methyl)cyclohexanecarboxamide], for which the EC50 came out at 532 nM.

In the case of `COc1cc(-c2cccc(N(CC34CCC(c5nnc(C)s5)(CC3)CC4)C(=O)C3CCOCC3)c2)ccn1` [Example 81, N-(3-(2-methoxypyridin-4-yl)phenyl)-N-((4-(5-methyl-1,3,4-thiadiazol-2-yl)bicyclo[2.2.2]octan-1-yl)methyl)tetrahydro-2H-pyran-4-carboxamide], the concentration giving a half-maximal response (EC50) was determined as 2500 nM.
